Source: patent publication US7855213B2 (AstraZeneca AB, priority 2006, dated 2010)
Structures can show the parent of a compound that is named as a salt.

Biological target: T1, human β-Secretase (Homo sapiens, UniProt P56817)
T1 construct: The soluble part of the human β-Secretase (AA 1-AA 460) was cloned; made in house
Experiment: TR-FRET assay
Format: biochemical

T1 sequence (P56817 22-460): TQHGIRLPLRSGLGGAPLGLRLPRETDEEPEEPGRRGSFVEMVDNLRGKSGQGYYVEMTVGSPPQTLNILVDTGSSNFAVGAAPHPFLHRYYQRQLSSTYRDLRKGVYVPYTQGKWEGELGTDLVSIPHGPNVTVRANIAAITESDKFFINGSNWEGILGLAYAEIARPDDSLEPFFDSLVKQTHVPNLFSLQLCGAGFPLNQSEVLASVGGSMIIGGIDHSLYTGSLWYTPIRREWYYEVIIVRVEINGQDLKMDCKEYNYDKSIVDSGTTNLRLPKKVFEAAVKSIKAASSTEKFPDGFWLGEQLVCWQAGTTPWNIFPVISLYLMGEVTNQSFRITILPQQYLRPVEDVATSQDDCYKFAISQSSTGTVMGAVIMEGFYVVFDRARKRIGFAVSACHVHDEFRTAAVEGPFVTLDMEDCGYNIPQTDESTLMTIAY

Structure (SMILES)	IC50 [nM]
NC1=NC(c2cccc(-c3cccnc3F)c2)(c2ccc3c(c2)OCO3)c2ccccc21 (centres unmarked) [Example 31, 3-Benzo[1,3]dioxol-5-yl-3-[3-(2-fluoropyridin-3-yl)-phenyl]-3H-isoindol-1-ylamine trifluoroacetate]	768
COc1cncc(-c2cccc(C3(c4ccc5c(c4)OCO5)N=C(N)c4ccccc43)c2)c1 (centres unmarked) [Example 32, 3-Benzo[1,3]dioxol-5-yl-3-[3-(5-methoxy-pyridin-3-yl)-phenyl]3H isoindol-1-ylamine trifluoroacetate]	708
COc1cccc(-c2cccc(C3(c4ccc5c(c4)OCO5)N=C(N)c4ccccc43)c2)c1 (centres unmarked) [Example 33, 3-Benzo[1,3]dioxol-5-yl-3-(3′-methoxy-biphenyl-3-yl)-3H-isoindol-1-ylamine trifluoroacetate]	1330
COc1cc(OS(C)(=O)=O)cc(-c2cccc(C3(c4ccc5c(c4)OCO5)N=C(N)c4ccccc43)c2)c1 (centres unmarked) [Example 34, Methanesulfonic acid 3′-(3-amino-1-benzo[1,3]dioxol-5-yl-1H-isoindol-1-yl)-5-methoxy-biphenyl-3-yl ester trifluoroacetate]	1090
CS(=O)(=O)Oc1ccc(C2(c3cccc(-c4cccnc4)c3)N=C(N)c3ccccc32)cc1 (centres unmarked) [Example 35, Methanesulfonic acid 4-[3-amino-1-(3-pyridin-3-yl-phenyl)-1H-isoindol-1-yl]-phenyl ester trifluoroacatete]	950
CS(=O)(=O)Oc1ccc(C2(c3cccc(-c4cccnc4F)c3)N=C(N)c3ccccc32)cc1 (centres unmarked) [Example 37, Methanesulfonic acid 4-{3-amino-1-[3-(2-fluoro-pyridin-3-yl)-phenyl]-1H-isoindol-1-yl}-phenyl ester trifluoroacetate]	569
CS(=O)(=O)Oc1ccc(C2(c3cccc(-c4cncnc4)c3)N=C(N)c3ccccc32)cc1 (centres unmarked) [Example 38, Methanesulfonic acid 4-[3-amino-1-(3-pyrimidin-5-yl-phenyl)-1H-isoindol-1-yl]-phenyl ester trifluoroacetate]	706
COc1cccc(-c2cccc(C3(c4ccc(OS(C)(=O)=O)cc4)N=C(N)c4ccccc43)c2)c1 (centres unmarked) [Example 40, Methanesulfonic acid 4-[3-amino-1-(3′-methoxy-biphenyl-3-yl)-1H-isoindol-1-yl]-phenyl ester trifluoroaceate]	570
COc1cc(OS(C)(=O)=O)cc(-c2cccc(C3(c4ccc(OS(C)(=O)=O)cc4)N=C(N)c4ccccc43)c2)c1 (centres unmarked) [Example 41, Methanesulfonic acid 4-[3-amino-1-(5′-methane-sulfonyloxy-3′-methoxy-biphenyl-3-yl)-1H-isoindol-1-yl]-phenyl ester trifluoroacetate]	575
NC1=NC(c2ccncc2)(c2cccc(-c3cncnc3)c2)c2ccccc21 (centres unmarked) [Example 45, 3-Pyridin-4-yl-3-(3-pyrimidin-5-yl-phenyl)-3H-isoindol-1-ylamine trifluoroacetate]	501
COc1ccc(C2(c3cccc(-c4ccc(C)o4)c3)N=C(N)c3ccccc32)cc1 (centres unmarked) [Example 54, 1-(4-Methoxyphenyl)-1-[3-(5-methyl-2-furyl)phenyl]-1H-isoindol-3-amine 0.5 acetate]	1000
COc1ccc(C2(c3cccc(-c4ccccc4C(N)=O)c3)N=C(N)c3ccccc32)cc1 (centres unmarked) [Example 55, 3′-[3-Amino-1-(4-methoxyphenyl)-1H-isoindol-1-yl]biphenyl-2-carboxamide 0.5 acetate]	2000
N#Cc1ccc(C2(c3cccc(-c4cncnc4)c3)N=C(N)c3ccccc32)cc1 (centres unmarked) [Example 58, 4-[3-Amino-1-(3-pyrimidin-5-ylphenyl)-1H-isoindol-1-yl]benzonitrile 0.25 acetate]	710
NC1=NC(c2ccc(C(F)(F)F)cc2)(c2cccc(-c3cncc(F)c3)c2)c2ccccc21 (centres unmarked) [Example 59, 1-[3-(5-Fluoropyridin-3-yl)phenyl]-1-[4-(trifluoromethyl)phenyl]-1H-isoindol-3-amine 0.25 acetate]	630
NC1=NC(c2ccc(C(F)(F)F)cc2)(c2cccc(-c3cncnc3)c2)c2ccccc21 (centres unmarked) [Example 60, 1-(3-Pyrimidin-5-ylphenyl)-1-[4-(trifluoromethyl)phenyl]1H-isoindol-3-amine 0.25 acetate]	570
NC1=NC(c2ccncc2)(c2cccc(-c3ccsc3C=O)c2)c2ccccc21 (centres unmarked) [Example 61, 3-[3-(3-Amino-1-pyridin-4-yl-1H-isoindol-1-yl)phenyl]thiophene-2-carbaldehyde]	2000
CC(C)Cn1cc(-c2cccc(C3(c4ccncc4)N=C(N)c4ccccc43)c2)cn1 (centres unmarked) [Example 62, 1-[3-(1-Isobutyl-1H-pyrazol-4-yl)phenyl]-1-pyridin-4-yl-1H-isoindol-3-amine 0.25]	> 10000
Cc1ccc(-c2cccc(C3(c4ccncc4)N=C(N)c4ccccc43)c2)o1 (centres unmarked) [Example 63, 1-[3-(5-Methyl-2-furyl)phenyl]-1-pyridin-4-yl-1H-isoindol-3-amine acetate]	1100
NC(=O)c1ccccc1-c1cccc(C2(c3ccncc3)N=C(N)c3ccccc32)c1 (centres unmarked) [Example 64, 3′-(3-Amino-1-pyridin-4-yl-1H-isoindol-1-yl)biphenyl-2-carboxamide 0.25 acetate]	> 3100
NC1=NC(c2ccc(C(F)(F)F)cc2)(c2cccc(-c3cccnc3F)c2)c2ccccc21 (centres unmarked) [Example 66, 1-[3-(2-Fluoropyridin-3-yl)phenyl]-1-[4-(trifluoromethyl)phenyl]-1H-isoindol-3-amine]	520

These reach a lower IC50. Values come first.

IC50 [nM]	Structure (SMILES)
350	COc1cncc(-c2cccc(C3(c4ccc(OS(C)(=O)=O)cc4)N=C(N)c4ccccc43)c2)c1 (centres unmarked) [Example 39, Methanesulfonic acid 4-{3-amino-1-[3-(5-methoxy-pyridin-3-yl)-phenyl]-1H-isoindol-1-yl}-phenyl ester trifluoroacetate]
110	NC1=NC(c2ccncc2)(c2cccc(-c3cccnc3F)c2)c2ccccc21 (centres unmarked) [Example 42, 3-[3-(2-Fluoro-pyridin-3-yl)-phenyl]-3-pyridin-4-yl-3H-isoindol-1-ylamine trifluoroacetate]
213	NC1=NC(c2ccncc2)(c2cccc(-c3cccnc3)c2)c2ccccc21 (centres unmarked) [Example 44, 3-Pyridin-4-yl-3-(3-pyridin-3-yl-phenyl)-3H-isoindol-1-ylamine trifluoroacetate]
98	COc1cncc(-c2cccc(C3(c4ccncc4)N=C(N)c4ccccc43)c2)c1 (centres unmarked) [Example 46, 3-[3-(5-Methoxy-pyridin-3-yl)-phenyl]-3-pyridin-4-yl-3H-isoindol-1-ylamine trifluoroacetate]
55	COc1cccc(-c2cccc(C3(c4ccncc4)N=C(N)c4ccccc43)c2)c1 (centres unmarked) [Example 47, 3-(3′-Methoxy-biphenyl-3-yl)-3-pyridin-4-yl-3H-isoindol-1-ylamine trifluoroacetate]
300	COc1ccc(C2(c3cccc(-c4ccsc4C=O)c3)N=C(N)c3ccccc32)cc1 (centres unmarked) [Example 48, 3-{3-[3-Amino-1-(4-methoxyphenyl)-1H-isoindol-1-yl]phenyl}thiophene-2-carbaldehyde 1.5 acetate]
200	NC1=NC(c2ccc(OC(F)(F)F)cc2)(c2cccc(-c3cncc(F)c3)c2)c2ccccc21 (centres unmarked) [Example 56, 1-[3-(5-Fluoropyridin-3-yl)phenyl]-1-[4-(trifluoromethoxy)phenyl]-1H-isoindol-3-amine 0.75 acetate]
180	NC1=NC(c2ccc(OC(F)(F)F)cc2)(c2cccc(-c3cncnc3)c2)c2ccccc21 (centres unmarked) [Example 57, 1-(3-Pyrimidin-5-ylphenyl)-1-[4-(trifluoromethoxy)phenyl]-1H-isoindol-3-amine 0.25 acetate]
400	N#Cc1ccc(C2(c3cccc(-c4cccnc4F)c3)N=C(N)c3ccccc32)cc1 (centres unmarked) [Example 65, 4-{3-Amino-1-[3-(2-fluoropyridin-3-yl)phenyl]-1H-isoindol-1-yl}benzonitrile]
92	NC1=NC(c2ccncc2)(c2cccc(-c3cncc(F)c3)c2)c2ccccc21 (centres unmarked) [Example 67, 1-[3-(5-Fluoropyridin-3-yl)phenyl]-1-pyridin-4-yl-1H-isoindol-3-amine 0.75 acetate]
81	NC1=NC(c2ccncc2)(c2ccc(F)c(-c3cncnc3)c2)c2ccccc21 (centres unmarked) [Example 68, 1-(4-Fluoro-3-pyrimidin-5-ylphenyl)-1-pyridin-4-yl-1H-isoindol-3-amine 0.5 acetate]
99	NC1=NC(c2ccncc2)(c2ccc(F)c(-c3cncc(F)c3)c2)c2ccccc21 (centres unmarked) [Example 69, 1-[4-Fluoro-3-(5-fluoropyridin-3-yl)phenyl]-1-pyridin-4-yl-1H-isoindol-3-amine 0.75 acetate]
190	NC1=NC(c2cccc(-c3cncc(F)c3)c2)(c2ccncc2F)c2ccccc21 (centres unmarked) [Example 71, 1-(3-Fluoropyridin-4-yl)-1-[3-(5-fluoropyridin-3-yl)phenyl]-1H-isoindol-3-amine 0.5 acetate]
250	NC1=NC(c2cccc(-c3cncnc3)c2)(c2ccncc2F)c2ccccc21 (centres unmarked) [Example 72, 1-(3-Fluoropyridin-4-yl)-1-(3-pyrimidin-5-ylphenyl)-1H-isoindol-3-amine 1.25 acetate]
130	NC1=NC(c2cccc(-c3cccnc3F)c2)(c2ccncc2F)c2ccccc21 (centres unmarked) [Example 73, 1-(3-Fluoropyridin-4-yl)-1-[3-(2-fluoropyridin-3-yl)phenyl]-1H-isoindol-3-amine 1.25 acetate]
150	NC1=NC(c2ccc(F)c(-c3cncnc3)c2)(c2ccncc2F)c2ccccc21 (centres unmarked) [Example 74, 1-(3-Fluoropyridin-4-yl)-1-(4-fluoro-3-pyrimidin-5-ylphenyl)-1H-isoindol-3-amine 1.25 acetate]
280	NC1=NC(c2ccc(F)c(-c3cncc(F)c3)c2)(c2ccncc2F)c2ccccc21 (centres unmarked) [Example 75, 1-[4-Fluoro-3-(5-fluoropyridin-3-yl)phenyl]-1-(3-fluoropyridin-4-yl)-1H-isoindol-3-amine 1.5 acetate]
100	NC1=NC(c2ccc(F)c(-c3cccnc3F)c2)(c2ccncc2F)c2ccccc21 (centres unmarked) [Example 76, 1-[4-Fluoro-3-(2-fluoropyridin-3-yl)phenyl]-1-(3-fluoropyridin-4-yl)-1H-isoindol-3-amine 1.5 acetate]
